pIC50: −log10 of the molar value.

In this experiment the target is T1, full length active recombinant SYK enzyme (Homo sapiens, UniProt P43405).
T1 construct: full length active recombinant SYK enzyme (Millipore, Calif.); purchased Millipore
Briefly: Inhibition of Syk tyrosine phosphorylation activity (LANCE TR-FRET kinase assay). Type of experiment: biochemical.
With `CC(C)[C@@H](Nc1nc(Nc2cccc(-n3nccn3)c2)c(C(N)=O)cc1C#N)C(N)=O` [Example 126, (R)-2-(3-(2H-1,2,3-triazol-2-yl)phenylamino)-6-(1-amino-3-methyl-1-oxobutan-2-ylamino)-5-cyanonicotinamide], the negative logarithm of the IC50 (pIC50) (as a rule, the negative decadic logarithm of the IC50, by convention in mol/L) is less than 6.00.

Take `CC(C)[C@H](CN)Nc1nc(Nc2ccc3ncccc3c2)c(C(N)=O)cc1C#N` [Example 128, (R)-6-(1-amino-3-methylbuttan-2-ylamino)-5-cyano-2-(quinolin-6-ylamino)nicotinamide]: the pIC50 was 8.00 to 9.00.

As for `N#Cc1cc(C(N)=O)c(Nc2cnc3ccccc3c2)nc1N[C@@H]1CCCC[C@@H]1N` [Example 129], the negative-log IC50 (pIC50) is 8.00 to 9.00.

As for `N#Cc1cc(C(N)=O)c(Nc2cccc(-c3ncccn3)c2)nc1N[C@@H]1CCCC[C@@H]1N` [Example 130], the negative logarithm of the IC50 (pIC50) was 8.00 to 9.00.

Turning to `N#Cc1cc(C(N)=O)c(Nc2cccc(-c3ccccn3)c2)nc1N[C@@H]1CCCC[C@@H]1N` [Example 131, 6-((1R,2S)-2-aminocyclohexylamino)-5-cyano-2-(3-(pyridin-2-yl)phenylamino)nicotinamide], the negative-log IC50 (pIC50) is 8.00 to 9.00.

With `NC(=O)c1ccc(N[C@@H]2CCCC[C@@H]2N)nc1Nc1cccc(-n2nccn2)c1` [Example 132, 2-(3-(2H-1,2,3-triazol-2-yl)phenylamino)-6-((1R,2S)-2-aminocyclohexylamino)nicotinamide], the pIC50 is 8.00 to 9.00.

With `NC(=O)c1ccc(N[C@@H]2CCCC[C@@H]2N)nc1Nc1cccc(-c2ncccn2)c1` [Example 133, 2-(3-(pyrimidin-2-yl)phenylamino)-6-((1R,2S)-2-aminocyclohexylamino)nicotinamide], the negative-log IC50 (pIC50) is 7.00 to 8.00.

Regarding `NC(=O)c1ccc(N[C@@H]2CCCC[C@@H]2N)nc1Nc1ccc2ncccc2c1` [Example 134, 2-(quinolin-6-ylamino)-6-((1R,2S)-2-aminocyclohexylamino)nicotinamide], the pIC50 is 8.00 to 9.00.

Turning to `NC(=O)c1ccc(N[C@@H]2CCCC[C@@H]2N)nc1Nc1ccc2cnccc2c1` [Example 135, 2-(isoquinolin-6-ylamino)-6-((1R,2S)-2-aminocyclohexylamino)nicotinamide], the pIC50 is 8.00 to 9.00.

As to `Cn1ncc2c(Nc3nc(N[C@@H]4CCCC[C@@H]4N)c(F)cc3C(N)=O)cccc21` [Example 136, 2-(1-methyl-1H-indazol-4-ylamino)-6-((1R,2S)-2-aminocyclohexylamino)-5-fluoronicotinamide], the negative-log IC50 (pIC50) was 8.00 to 9.00.

`NC(=O)c1ccc(N[C@@H]2CCCC[C@@H]2N)nc1Nc1ccc2ccncc2c1` [Example 137, 2-(isoquinolin-7-ylamino)-6-((1R,2S)-2-aminocyclohexylamino)nicotinamide]: the pIC50 is 8.00 to 9.00.

On to `NC(=O)c1ccc(N[C@@H]2CCCC[C@@H]2N)nc1Nc1cccc(-n2cncn2)c1` [Example 138, 2-(3-(1H-1,2,4-triazol-1-yephenylamino)-6-(1R,2S)-2-aminocyclohexylamino)nicotinamide], for which the negative-log IC50 (pIC50) was 8.00 to 9.00.

In the case of `Cn1ncc2cc(Nc3nc(N[C@@H]4CCCC[C@@H]4N)c(F)cc3C(N)=O)ccc21` [Example 139, 2-(1-methyl-1H-indazol-5-ylamino)-6-((1R,2S)-2-aminocyclohexylamino)-5-fluoronicotinamide], the pIC50 was 8.00 to 9.00.

As to `NC(=O)c1cc(F)c(N[C@H]2CCCNC2)nc1Nc1ccc2ncccc2c1` [Example 143, (S)-5-fluoro-6-(piperidin-3-ylamino)-2-(quinolin-6-ylamino)nicotinamide], the negative logarithm of the IC50 (pIC50) was less than 6.00.

On to `Cc1cc(Nc2cc(N[C@@H]3CCCC[C@@H]3N)ccc2C(N)=O)on1` [Example 147, 4-((1R,2S)-2-aminocyclohexylamino)-2-(3-methylisoxazol-5-ylamino)benzamide], for which the pIC50 was 6.00 to 7.00.

As for `NC(=O)c1cc(F)c(N[C@@H]2CCCC[C@@H]2N)nc1Nc1cnc2ncccc2c1` [Example 150, 2-(1,8-naphthyridin-3-ylamino)-6-((1R,2S)-2-aminocyclohexylamino)-5-fluoronicotinamide], the negative logarithm of the IC50 (pIC50) was 8.00 to 9.00.

`NC(=O)c1cc(F)c(N[C@@H]2CCCC[C@@H]2N)nc1Nc1ccnc2ncccc12` [Example 151, 2-(1,8-naphthyridin-4-ylamino)-6-((1R,2S)-2-aminocyclohexylamino)-5-fluoronicotinamide]: the negative-log IC50 (pIC50) was 8.00 to 9.00.

With `NC(=O)c1cc(F)c(N[C@@H]2CCCC[C@@H]2N)nc1Nc1cncnc1` [Example 152, 6-((1R,2S)-2-aminocyclohexylamino)-5-fluoro-2-(pyrimidin-5-ylamino)nicotinamide], the pIC50 was 6.00 to 7.00.

Regarding `Cn1cnc2cc(Nc3nc(N[C@@H]4CCCC[C@@H]4N)c(F)cc3C(N)=O)ccc21` [Example 153, 6-((1R,2S)-2-aminocyclohexylamino)-5-fluoro-2-(1-methyl-1H-benzo[d]imidazol-5-ylamino)nicotinamide], the pIC50 was 8.00 to 9.00.

`NC(=O)c1cc(F)c(N[C@@H]2CCCC[C@@H]2N)nc1Nc1cncc(-n2nccn2)c1` [Example 154, 2-(5-(2H-1,2,3-triazol-2-yl)pyridin-3-ylamino)-6-((1R,2S)-2-aminocyclohexylamino)-5-fluoronicotinamide]: the pIC50 was 8.00 to 9.00.

Take `NC(=O)c1cc(F)c(N[C@@H]2CCCC[C@@H]2N)nc1Nc1cncc(-n2cccn2)c1` [Example 155, 2-(5-(1H-pyrazol-1-yl)pyridin-3-ylamino)-6-((1R,2S)-2-aminocyclohexylamino)-5-fluoronicotinamide]: the pIC50 is less than 6.00.

As to `NC(=O)c1cc(F)c(N[C@@H]2CCCC[C@@H]2N)nc1Nc1cncc(-c2ncccn2)c1` [Example 156, 6-((1R,2S)-2-aminocyclohexylamino)-5-fluoro-2-(5-(pyrimidin-2-yl)pyridin-3-ylamino)nicotinamide], the negative logarithm of the IC50 (pIC50) is 8.00 to 9.00.

For the compound `NC(=O)c1ccc(N[C@@H]2CCCC[C@@H]2N)nc1Nc1cncc(-c2ncccn2)c1` [Example 157, 6-((1R,2S)-2-aminocyclohexylamino)-2-(5-(pyrimidin-2-yl)pyridin-3-ylamino)nicotinamide], the pIC50 is 7.00 to 8.00.

With `NC(=O)c1ccc(N[C@@H]2CCCC[C@@H]2N)nc1Nc1cncc(-n2nccn2)c1` [Example 158], the pIC50 was 8.00 to 9.00.

As for `NC(=O)c1ccc(N[C@@H]2CCCC[C@@H]2N)nc1Nc1cncc(-n2cccn2)c1` [Example 159, 2-(5-(1H-pyrazol-1-yl)pyridin-3-ylamino)-6-((1R,2S)-2-aminocyclohexylamino)nicotinamide], the pIC50 was 8.00 to 9.00.

For `NC(=O)c1cc(F)c(N[C@@H]2CCCC[C@@H]2N)nc1Nc1cncc(-n2ccnc2)c1` [Example 160], the negative-log IC50 (pIC50) is 7.00 to 8.00.

Turning to `NC(=O)c1ccc(N[C@@H]2CCCC[C@@H]2N)nc1Nc1cncc(-n2ccnc2)c1` [Example 161, 2-(5-(1H-imidazol-1-yl)pyridin-3-ylamino)-6-((1R,2S)-2-aminocyclohexylamino)nicotinamide], the pIC50 is 8.00 to 9.00.

With `NC(=O)c1cc(F)c(N[C@@H]2CCCC[C@@H]2N)nc1Nc1cncc(-c2nccs2)c1` [Example 162, 6-((1R,2S)-2-aminocyclohexylamino)-5-fluoro-2-(5-(thiazol-2-yl)pyridin-3-ylamino)nicotinamide], the negative-log IC50 (pIC50) is 8.00 to 9.00.

Turning to `NC(=O)c1ccc(N[C@@H]2CCCC[C@@H]2N)nc1Nc1cncc(-c2nccs2)c1` [Example 163], the pIC50 was 8.00 to 9.00.

In the case of `COc1cncc(Nc2nc(N[C@@H]3CCCC[C@@H]3N)ccc2C(N)=O)c1` [Example 164], the negative-log IC50 (pIC50) is 8.00 to 9.00.

For the compound `NC(=O)c1ccc(N[C@@H]2CCCC[C@@H]2N)nc1Nc1cnc2ncccc2c1` [Example 165], the pIC50 was 8.00 to 9.00.

Take `COc1ncc(Nc2nc(N[C@@H]3CCCC[C@@H]3N)c(F)cc2C(N)=O)cn1` [Example 166, 6-((1R,2S)-2-aminocyclohexylamino)-5-fluoro-2-(2-methoxypyrimidin-5-ylamino)nicotinamide]: the pIC50 was 6.00 to 7.00.

Turning to `NC(=O)c1cc(F)c(N[C@@H]2CCCC[C@@H]2N)nc1Nc1cccnc1` [Example 174, 6-((1R,2S)-2-aminocyclohexylamino)-5-fluoro-2-(pyridin-3-ylamino)nicotinamide], the pIC50 was 8.00 to 9.00.

For the compound `NC(=O)c1cc(F)c(N[C@@H]2CCCC[C@@H]2N)nc1Nc1ccncc1` [Example 175], the negative logarithm of the IC50 (pIC50) was 7.00 to 8.00.

As for `NC(=O)c1cc(F)c(N[C@@H]2CCCC[C@@H]2N)nc1Nc1ccc(C(F)(F)F)nc1` [Example 176, 6-((1R,2S)-2-aminocyclohexylamino)-5-fluoro-2-(6-(trifluoromethyl)pyridin-3-ylamino)nicotinamide], the pIC50 was 7.00 to 8.00.

For the compound `NC(=O)c1cc(F)c(N[C@@H]2CCCC[C@@H]2N)nc1Nc1cncs1` [Example 177, 6-((1R,2S)-2-aminocyclohexylamino)-5-fluoro-2-(thiazol-5-ylamino)nicotinamide], the pIC50 was less than 6.00.

Turning to `NC(=O)c1cc(F)c(N[C@@H]2CCCC[C@@H]2N)nc1Nc1cnsc1` [Example 178, 6-((1R,2S)-2-aminocyclohexylamino)-5-fluoro-2-(isothiazol-4-ylamino)nicotinamide], the negative logarithm of the IC50 (pIC50) is 7.00 to 8.00.

For the compound `NC(=O)c1ccc(N[C@@H]2CCCC[C@@H]2N)nc1Nc1cncc(F)c1` [Example 179], the pIC50 was 8.00 to 9.00.

In the case of `NC(=O)c1ccc(N[C@@H]2CCCC[C@@H]2N)nc1Nc1cccnc1` [Example 180, 6-((1R,2S)-2-aminocyclohexylamino)-2-(pyridin-3-ylamino)nicotinamide], the pIC50 was 8.00 to 9.00.

In the case of `NC(=O)c1ccc(N[C@@H]2CCCC[C@@H]2N)nc1Nc1ccncc1` [Example 181, 6-((1R,2S)-2-aminocyclohexylamino)-2-(pyridin-4-ylamino)nicotinamide], the pIC50 was 8.00 to 9.00.

As to `Cc1cc(Nc2nc(N[C@@H]3CCCC[C@@H]3N)ccc2C(N)=O)sn1` [Example 182, 6-((1R,2S)-2-aminocyclohexylamino)-2-(3-methylisothiazol-5-ylamino)nicotinamide], the pIC50 was 8.00 to 9.00.

These data come from US8846928B2 (Portola Pharmaceuticals, Inc., priority 2010, dated 2014).
